# Laboratory results as given in US7977481B2, “Pyrimidinyl-thiophene kinase modulators” (SGX Pharmaceuticals, Inc., priority 2005, dated 2011).
# What was measured:
# [1] = target: T1, Autophosphorylated AurA kinase (Homo sapiens, UniProt O14965); experiment: AurA Luminescence-Based ATP Depletion Enzyme Assay; type: biochemical; conditions: 10 μM ATP
# T1 construct: made in house; host or cells: Sf9 insect cells
# T1 sequence (O14965 1-403): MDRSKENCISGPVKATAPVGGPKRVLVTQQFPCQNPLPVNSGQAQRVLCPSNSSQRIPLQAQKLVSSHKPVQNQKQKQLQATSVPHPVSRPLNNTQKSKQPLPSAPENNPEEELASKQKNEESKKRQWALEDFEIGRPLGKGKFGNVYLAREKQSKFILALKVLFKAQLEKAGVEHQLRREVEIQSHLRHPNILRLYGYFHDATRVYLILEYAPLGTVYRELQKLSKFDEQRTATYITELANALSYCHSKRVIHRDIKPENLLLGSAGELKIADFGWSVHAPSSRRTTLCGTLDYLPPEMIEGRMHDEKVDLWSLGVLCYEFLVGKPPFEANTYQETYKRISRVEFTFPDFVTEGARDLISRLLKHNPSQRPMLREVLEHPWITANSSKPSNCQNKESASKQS
# Method: AurA Luminescence-Based ATP Depletion Enzyme Assay
# Materials: Kemptide peptide substrate=LRRASLG (Biopeptide, San Diego, Calif.), ATP (Sigma Cat#A-3377, FW=551), HEPES buffer, pH 7.5, 10% Brij 35 (Calbiochem Cat#203728), MgCl2, Staurosporine (Streptomyces sp. Sigma Cat#85660-1MG), white Costar 384-well flat-bottom plate (VWR Cat#29444-088), Autophosphorylated AurA kinase (see below), Kinase-Glo™ (Promega Cat#V6712).
# Stock Solutions: 10 mM Kemptide peptide (7.72 mg/ml in water), stored at −20° C.; 100 mM HEPES buffer+0.015% Brij 35, pH 7.5 (5 ml 1M HEPES stock+75 μL 10% Brij 35+45 ml miliQH2O); 10 mM ATP (5.51 mg/ml in dH2O) stored at −20° C. (diluted 50 μl into total of 10 ml miliQH2O daily=50 μM ATP working stock); 100 mM MgCl2; 200 μM Staurosporine, 2× Kinase-Glo™ reagent (made fresh or stored at −20° C.).
# AurA Autophosphorylation Reaction: ATP and MgCl2 were added to 1-5 mg/ml AurA at final concentrations of 10 mM and 100 mM, respectively. The autophosphorylation reaction was incubated at 21° C. for 2-3 h. The reaction was stopped by the addition of EDTA to a final concentration of 50 mM, and samples were flash frozen with liquid N2 and stored at −80° C.
# Standard Assay Setup for 384-well format (20 μl kinase reaction, 40 μl detection reaction): 10 mM MgCl2; 0.2 mM Kemptide peptide; 1 μl test compound (in DMSO); 0.3 μg/ml Autophosphorylated AurA kinase; 10 μM ATP; 100 mM HEPES+0.015% Brij buffer. Positive controls contained DMSO with no test compound. Negative controls contained 5 μM staurosporine. The kinase reactions were initiated at time t=0 by the addition of ATP. Kinase reactions were incubated at 21° C. for 45 min, then 20 μl of Kinase-Glo™ reagent were added to each well to quench the kinase reaction and initiate the luminescence reaction. After a 20 min incubation at 21° C., the luminescence was detected in a plate-reading luminometer.
# The Sf9 insect cell pellets (˜18 g) produced from 6 L of cultured cells expressing human Aurora-2 were resuspended in 50 mM Na Phosphate pH 8.0, 500 mM NaCl, 10% glycerol, 0.2% n-octyl-β-D-glucopyranoside (BOG) and 3 mM β-Mercaptoethanol (BME). One tablet of Roche Complete, EDTA-free protease inhibitor cocktail (Cat#1873580) and 85 units Benzonase (Novagen Cat#70746-3)) were added per 1 L of original culture. Pellets were resuspended in approximately 50 ml per 1 L of original culture and were then sonicated on ice with two 30-45 sec bursts (100% duty cycle). Debris was removed by centrifugation and the supernatant was passed through a 0.8 μm syringe filter before being loaded onto a 5 ml Ni^2+ HiTrap column (Pharmacia). The column was washed with 6 column volumes of 50 mM Na Phosphate pH 8.0, 500 mM NaCl, 10% glycerol, 3 mM BME. The protein was eluted using a linear gradient of the same buffer containing 500 mM Imidazole. The eluant (24 ml) was cleaved overnight at 4° C. in a buffer containing 50 mM Na Phosphate pH 8.0, 500 mM NaCl, 10% glycerol, 3 mM BME and 10,000 units of TEV (Invitrogen Cat#10127-017). The protein was passed over a second nickel affinity column as described above; the flow-through was collected. The cleaved protein fractions were combined and concentrated using spin concentrators. Further purification was done by gel filtration chromatography on a S75 sizing column in 50 mM Na Phosphate (pH 8.0), 250 mM NaCl, 1 mM EDTA, 0.1 mM AMP-PNP or ATP buffer, and 5 mM DTT. The cleanest fractions were combined and concentrated to approximately 8-11 mg/ml, and were either flash frozen in liquid nitrogen in 120 μl aliquots and stored at −80° C., or stored at 4° C.
# HCT116 cells = experiment: 96-well XTT cell survival assay (AurA XTT); type: cell-based; conditions: Homo sapiens, HCT-116, 72 hours
# Method: HCT116 cells were maintained in McCoy's 5a Medium supplemented with 10% fetal bovine serum (FBS) 2 mM L-Glutamine and 100 units penicillin/100 μg streptomycin, at 37° C. in 5% CO2
# Compounds were tested in the following assays in duplicate.
# 96-well XTT assay: Cells were grown in growth media containing various concentrations of compounds (duplicates) on a 96-well flat bottom plate for 72 hours at 37° C. in 5% CO2. The starting cell number was 5000 cells per well and volume was 120 μl. At the end of the 72-hour incubation, 40 μl of XTT labeling mixture (50:1 solution of sodium 3′-[1-(phenylaminocarbonyl)-3,4-tetrazolium]-bis(4-methoxy-6-nitro) benzene sulfonic acid hydrate and Electron-coupling reagent: PMS (N-methyl dibenzopyrazine methyl sulfate) were added to each well of the plate. After an additional 2-6 hours […] with a spectrophotometer.
Structure (SMILES),IC50 [1] [nM],IC50 (HCT116 cells) [nM]
NC(=O)c1cccc(Nc2nccc(-c3ccc(Br)s3)n2)c1,100 to 500,–
CCN(CCC#N)C(=O)c1ccc(-c2ccnc(Nc3ccncc3)n2)s1,> 500,1000 to 5000
O=S(=O)(Nc1ncc[nH]1)c1ccc(Nc2nccc(-c3ccc(S(=O)(=O)N4CCCCC4)s3)n2)cc1,< 100,–
CC(O)c1cccc(Nc2nccc(-c3cc(C(=O)NCc4ccccc4)cs3)n2)c1 (stereo not shown),< 100,–

# More lines, main results first:
IC50 [1] [nM],Structure (SMILES),IC50 (HCT116 cells) [nM]
100 to 500,Cc1noc(C)c1-c1ccc(-c2ccnc(Nc3cccc(C(C)O)c3)n2)s1 (stereo not shown),–
100 to 500,CC(O)c1cccc(Nc2nccc(-c3ccc(CNC(=O)c4ccccc4)s3)n2)c1 (stereo not shown),–
